Measurements taken from patent US4029805A, “Semisynthetic penicillins” (Hoffmann-La Roche Inc., priority 1976, dated 1977).
Like-named read-outs stand apart in the source and are kept apart here.

Tests used:
B. subtilis = assay: Stability in aqueous solution at room temperature, microbiological assay using B. subtilis; conditions: in words
Method: To illustrate the relative stability of the compounds of this invention in aqueous solution at room temperature the sodium salts of the compounds were tested as 20% by weight aqueous solutions for activity by microbiological assay using B. subtilis as the test organism and compared to 10% and 20% aqueous solutions of amoxicillin sodium salt and 10% aqueous solution of the acetone derivative of amoxicillin.

S. aureus = assay: Curative dose against systemic S. aureus infection; assay type: in vivo, mice; conditions: Staphylococcus aureus, in Mus musculus, read-out: CD50 (the source's name)
S. pyogenes = assay: Curative dose against systemic S. pyogenes infection; assay type: in vivo, mice; conditions: Streptococcus pyogenes, in Mus musculus, read-out: CD50 (the source's name)
D. pneumoniae = assay: Curative dose against systemic D. pneumoniae infection; assay type: in vivo, mice; conditions: Streptococcus pneumoniae, in Mus musculus, read-out: CD50 (the source's name)
E. coli [1] = assay: Curative dose against systemic E. coli infection; assay type: in vivo, mice; conditions: Escherichia coli, in Mus musculus, po
Method: (§1) In order to illustrate the relative activity of the compounds of this invention as compared to amoxicillin, the compounds, represented by the acetaldehyde derivative, were tested orally against systemic bacterial infections of mice with the following results. The CD50 is the curative dose in 50% of the animals treated against a challenge organism.

K. pneumoniae = assay: Curative dose against systemic K. pneumoniae infection; assay type: in vivo, mice; conditions: Klebsiella pneumoniae, in Mus musculus, read-out: CD50 (the source's name)
S. typhosa [2] = assay: Curative dose against systemic S. typhosa infection; assay type: in vivo, mice; conditions: Mus musculus, po
Method: as §1

S. schottmuelleri = assay: Curative dose against systemic S. schottmuelleri infection; assay type: in vivo, mice; conditions: Mus musculus
E. coli [3] = assay: Curative dose against systemic E. coli infection; assay type: in vivo, mice; conditions: Escherichia coli, in Mus musculus, read-out: CD50 (the source's name)
S. typhosa [4] = assay: Curative dose against systemic S. typhosa infection; assay type: in vivo, mice; conditions: Mus musculus, sc, read-out: CD50 (the source's name)
[5] = po, Table 3(b), po, acetaldehyde derivative comparison
[6] = po, benzaldehyde derivative comparison
[7] = po, butyraldehyde derivative comparison
[8] = po, hexaldehyde derivative comparison
[9] = po, propionaldehyde derivative comparison
[10] = sc, Table 3(b), sc, acetaldehyde derivative comparison
[11] = sc, benzaldehyde derivative comparison
[12] = sc, butyraldehyde derivative comparison
[13] = sc, hexaldehyde derivative comparison
[14] = sc, propionaldehyde derivative comparison
[15] = Table 3(b), acetaldehyde derivative comparison, read-out: CD50 (the source's name)
[16] = read-out: CD50, Table 2, PO, mice

CC1(C)S[C@@H]2[C@H](NC(=O)[C@H](N)c3ccc(O)cc3)C(=O)N2[C@H]1C(=O)O [Amoxicillin, 6[(-)-alpha-amino-para-hydroxyphenylacetamido]-penicillanic acid]
stability in solution (B. subtilis): very short stability in parenteral solutions | ED50 (S. aureus; po, Table 2, PO, mice): 1.2 mg/kg | ED50 (S. aureus; [5]): 1.2 mg/kg | ED50 (S. aureus; [6]): 4 mg/kg | ED50 (S. aureus; [7]): 0.29 mg/kg | ED50 (S. aureus; [8]): 0.72 mg/kg | ED50 (S. aureus; [9]): 0.41 mg/kg | ED50 (S. aureus; [10]): 2 mg/kg | ED50 (S. aureus; [11]): 0.16 mg/kg | ED50 (S. aureus; [12]): 0.5 mg/kg | ED50 (S. aureus; [13]): 0.79 mg/kg | ED50 (S. aureus; [14]): 0.47 mg/kg | ED50 (S. pyogenes; po, Table 2, PO, mice): 1.5 mg/kg | ED50 (S. pyogenes; [5]): 1.5 mg/kg | ED50 (S. pyogenes; [6]): 0.82 mg/kg | ED50 (S. pyogenes; [7]): 0.08 mg/kg | ED50 (S. pyogenes; [8]): 0.3 mg/kg | ED50 (S. pyogenes; [9]): 0.16 mg/kg | ED50 (S. pyogenes; [10]): < 0.05 mg/kg | ED50 (S. pyogenes; [11]): 0.31 mg/kg | ED50 (S. pyogenes; [12]): < 0.01 mg/kg | ED50 (S. pyogenes; [13]): 0.11 mg/kg | ED50 (S. pyogenes; [14]): 0.07 mg/kg | ED50 (D. pneumoniae; po, Table 2, PO, mice): 10 mg/kg | ED50 (D. pneumoniae; [5]): 10 mg/kg | ED50 (D. pneumoniae; [6]): < 0.2 mg/kg | ED50 (D. pneumoniae; [7]): 2.7 mg/kg | ED50 (D. pneumoniae; [8]): 0.75 mg/kg | ED50 (D. pneumoniae; [9]): 1.1 mg/kg | ED50 (D. pneumoniae; [10]): 0.53 mg/kg | ED50 (D. pneumoniae; [11]): 0.14 mg/kg | ED50 (D. pneumoniae; [12]): 3.2 mg/kg | ED50 (D. pneumoniae; [13]): 0.07 mg/kg | ED50 (D. pneumoniae; [14]): 0.19 mg/kg | ED50 (E. coli [1]; [15]): 6.4 mg/kg | ED50 (E. coli [1]; [16]): 6.4 mg/kg | ED50 (K. pneumoniae; po, Table 2, PO, mice): 10 mg/kg | ED50 (K. pneumoniae; [5]): 10 mg/kg | ED50 (K. pneumoniae; [6]): 75 mg/kg | ED50 (K. pneumoniae; [7]): 58 mg/kg | ED50 (K. pneumoniae; [8]): 59 mg/kg | ED50 (K. pneumoniae; [9]): 16 mg/kg | ED50 (K. pneumoniae; [10]): 12 mg/kg | ED50 (K. pneumoniae; [11]): 100 mg/kg | ED50 (K. pneumoniae; [12]): 22 mg/kg | ED50 (K. pneumoniae; [13]): 48 mg/kg | ED50 (K. pneumoniae; [14]): 17 mg/kg | ED50 (S. typhosa [2]; [15]): 5 mg/kg | ED50 (S. typhosa [2]; benzaldehyde derivative comparison, read-out: CD50 (the source's name)): 1.3 mg/kg | ED50 (S. typhosa [2]; butyraldehyde derivative comparison, read-out: CD50 (the source's name)): 3.3 mg/kg | ED50 (S. typhosa [2]; hexaldehyde derivative comparison, read-out: CD50 (the source's name)): 3.7 mg/kg | ED50 (S. typhosa [2]; propionaldehyde derivative comparison, read-out: CD50 (the source's name)): 3.8 mg/kg | ED50 (S. typhosa [2]; [16]): 5.4 mg/kg | ED50 (S. schottmuelleri; po, Table 3(b), po, acetaldehyde derivative comparison, read-out: CD50 (the source's name)): 5.3 mg/kg | ED50 (S. schottmuelleri; po, benzaldehyde derivative comparison, read-out: CD50 (the source's name)): 5.5 mg/kg | ED50 (S. schottmuelleri; po, butyraldehyde derivative comparison, read-out: CD50 (the source's name)): 5.9 mg/kg | ED50 (S. schottmuelleri; po, hexaldehyde derivative comparison, read-out: CD50 (the source's name)): 4.4 mg/kg | ED50 (S. schottmuelleri; po, propionaldehyde derivative comparison, read-out: CD50 (the source's name)): 5.7 mg/kg | ED50 (S. schottmuelleri; po, read-out: CD50, Table 2, PO, mice): 5.3 mg/kg | ED50 (S. schottmuelleri; sc, Table 3(b), sc, acetaldehyde derivative comparison, read-out: CD50 (the source's name)): 6.5 mg/kg | ED50 (S. schottmuelleri; sc, benzaldehyde derivative comparison, read-out: CD50 (the source's name)): 6.7 mg/kg | ED50 (S. schottmuelleri; sc, butyraldehyde derivative comparison, read-out: CD50 (the source's name)): 2.3 mg/kg | ED50 (S. schottmuelleri; sc, hexaldehyde derivative comparison, read-out: CD50 (the source's name)): 1 mg/kg | ED50 (S. schottmuelleri; sc, propionaldehyde derivative comparison, read-out: CD50 (the source's name)): 6.1 mg/kg | ED50 (E. coli [3]; [6]): 16 mg/kg | ED50 (E. coli [3]; [7]): 15 mg/kg | ED50 (E. coli [3]; [8]): 10 mg/kg | ED50 (E. coli [3]; [9]): 11 mg/kg | ED50 (E. coli [3]; [10]): 10 mg/kg | ED50 (E. coli [3]; [11]): 5.9 mg/kg | ED50 (E. coli [3]; [12]): 6 mg/kg | ED50 (E. coli [3]; [13]): 2.5 mg/kg | ED50 (E. coli [3]; [14]): 3.4 mg/kg | ED50 (S. typhosa [4]; Table 3(b), acetaldehyde derivative comparison): 6.3 mg/kg | ED50 (S. typhosa [4]; benzaldehyde derivative comparison): 0.56 mg/kg | ED50 (S. typhosa [4]; butyraldehyde derivative comparison): 1.3 mg/kg | ED50 (S. typhosa [4]; hexaldehyde derivative comparison): 3.3 mg/kg | ED50 (S. typhosa [4]; propionaldehyde derivative comparison): 2.8 mg/kg | LD50 (in vivo; ip): 3460 mg/kg | LD50 (in vivo; po): > 10000 mg/kg | LD50 (in vivo; sc): 10000 mg/kg
